Data taken from patent US20220193076A1, “METHODS OF TREATING BREAST CANCER WITH TUCATINIB” (Seagen Inc., priority 2019, published 2022).

Assays:
[1] = Example 1: renal function (iohexol aGFR, serum creatinine, urine albumin); format: in vivo, human
[2] = molecular target: T1, CYP2C8 (Homo sapiens, UniProt P10632); assay: Ki determination in pooled human liver microsomes, amodiaquine N-deethylase (Example 5); format: in vitro ADME
T1 sequence (P10632 1-490): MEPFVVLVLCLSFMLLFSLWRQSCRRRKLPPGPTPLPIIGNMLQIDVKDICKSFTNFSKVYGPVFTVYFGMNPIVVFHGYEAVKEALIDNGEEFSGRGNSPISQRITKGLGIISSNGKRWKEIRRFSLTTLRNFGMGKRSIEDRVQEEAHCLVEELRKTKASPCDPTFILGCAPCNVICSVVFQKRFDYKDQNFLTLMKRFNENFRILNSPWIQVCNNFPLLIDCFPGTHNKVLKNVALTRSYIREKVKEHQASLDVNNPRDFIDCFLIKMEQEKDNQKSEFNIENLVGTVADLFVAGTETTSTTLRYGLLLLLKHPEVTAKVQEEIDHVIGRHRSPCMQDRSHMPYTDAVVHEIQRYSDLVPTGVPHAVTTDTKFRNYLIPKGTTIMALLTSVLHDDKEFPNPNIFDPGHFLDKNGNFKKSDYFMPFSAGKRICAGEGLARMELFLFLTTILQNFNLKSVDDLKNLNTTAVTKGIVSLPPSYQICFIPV
Method: The objective of this study was to evaluate in vitro the Ki of tucatinib of the following human hepatic cytochrome P450 (CYP) enzymes (CYP2C8, CYP2C9, and CYP3A4) and UGT1A1. […] Pooled human liver microsomes (HLM) from 150 individuals (79 males and 71 females) were obtained from BioreclamationIVT (Baltimore, Md.) and stored at approximately −70° C. The microsomes were characterized by the supplier for total protein and selected cytochrome P450 activities. […] The final organic solvent contribution was ≤1%. Incubations were terminated by the addition of chilled acetonitrile containing a stable isotope-labeled internal standard. […] Samples were analyzed by liquid chromatography with tandem mass spectrometry (LC-MS/MS). Analyte concentrations were quantified by LC-MS/MS and interpolated from standard curves of authentic analyte. […] Activities were calculated based on analyte concentration, incubation time, and protein concentration. Enzymatic activity (pmol/minute/mg protein) was expressed as the formation of the analyte per final protein concentration per incubation time. Activity remaining was expressed as the enzymatic activity at each concentration point of the test article normalized by the solvent control mean activity. […]

[3] = molecular target: T2, MATE1 (Homo sapiens, UniProt Q96FL8); assay: In vitro inhibition of MATE1 transporter; format: in vitro ADME
T2 sequence (Q96FL8 1-570): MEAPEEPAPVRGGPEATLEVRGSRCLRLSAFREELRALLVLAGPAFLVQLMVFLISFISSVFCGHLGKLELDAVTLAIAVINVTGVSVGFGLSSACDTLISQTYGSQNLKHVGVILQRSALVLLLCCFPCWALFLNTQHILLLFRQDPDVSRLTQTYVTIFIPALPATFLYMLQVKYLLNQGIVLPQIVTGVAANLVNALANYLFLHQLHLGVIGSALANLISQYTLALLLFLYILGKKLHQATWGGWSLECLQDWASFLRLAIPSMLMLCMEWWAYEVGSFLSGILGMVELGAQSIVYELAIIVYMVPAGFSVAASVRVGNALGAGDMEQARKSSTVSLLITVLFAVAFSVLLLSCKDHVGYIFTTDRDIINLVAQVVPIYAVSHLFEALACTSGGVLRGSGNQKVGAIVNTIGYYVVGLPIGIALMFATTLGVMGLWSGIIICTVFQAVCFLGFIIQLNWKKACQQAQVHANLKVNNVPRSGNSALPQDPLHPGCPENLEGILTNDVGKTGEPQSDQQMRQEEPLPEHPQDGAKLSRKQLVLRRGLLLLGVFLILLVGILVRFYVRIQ

[4] = molecular target: T3, OAT2 (Homo sapiens, UniProt Q9Y694); assay: Inhibition of OAT2 mediated transport of creatinine in transfected MDCK-II cells (Example 3); format: in vitro ADME; conditions: MDCK-II, read-out: Maximum inhibition of OAT2 mediated transport of creatinine
T3 construct: expressed in transfected cells; host or cells: MDCK-II
T3 sequence (Q9Y694 1-548): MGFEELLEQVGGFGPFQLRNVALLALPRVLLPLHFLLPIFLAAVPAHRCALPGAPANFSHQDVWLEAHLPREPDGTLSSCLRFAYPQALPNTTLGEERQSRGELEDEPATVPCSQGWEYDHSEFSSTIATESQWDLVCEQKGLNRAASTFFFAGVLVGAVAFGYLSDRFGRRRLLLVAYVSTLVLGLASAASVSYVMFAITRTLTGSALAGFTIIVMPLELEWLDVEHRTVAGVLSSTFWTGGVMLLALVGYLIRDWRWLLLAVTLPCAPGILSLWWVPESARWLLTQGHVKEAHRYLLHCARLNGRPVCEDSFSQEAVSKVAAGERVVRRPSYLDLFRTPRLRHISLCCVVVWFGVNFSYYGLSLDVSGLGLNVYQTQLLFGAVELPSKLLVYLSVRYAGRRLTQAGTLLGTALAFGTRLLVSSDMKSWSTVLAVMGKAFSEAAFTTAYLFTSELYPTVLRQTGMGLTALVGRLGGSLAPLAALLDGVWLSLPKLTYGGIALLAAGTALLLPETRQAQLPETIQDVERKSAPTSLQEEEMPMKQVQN
Method: Substrate dependent inhibition is common among transporters including MATE1 and MATE2-K. In this study, creatinine was used as the probe substrate to assess the inhibitory potency of Tucatinib and ONT-993. OAT2, OCT2, OCT3, MATE1, and MATE2-K are the renal transporters identified to transport creatinine. Tucatinib and its metabolite ONT-993 were tested as potential inhibitors of OAT2, OCT2, MATE1, and MATE2-K mediated transport using creatinine as a probe substrate.
For this study, MDCK-II were maintained in DMEM with low glucose and 10% FBS. Cells were seeded at 60K±10K cells/well on 96-well, transwell membrane plates approximately 24 hours before transfection. Transport assays were carried out approximately 48 hours after transfection. Cells were transfected and treated to express the transporter of interest or treated with a control vector. The transport of creatinine was determined by radiometric detection.
Net transporter mediated uptake of the substrate by each transporter was calculated as follows: Net Transporter Mediated Substrate Uptake (pmol/min/cm^2)=(Cellular accumulation in the presence of the transporter)−(Mean cellular accumulation in the absence of the transporter.
Percent inhibition was calculated as follows: Percent inhibition=100−(100*(transporter mediated uptake)with inhibition/(transporter mediated uptake)without inhibition) […]

[5] = following multiple doses of tucatinib

Cc1cc(Nc2ncnc3ccc(NC4=NC(C)(C)CO4)cc23)ccc1Oc1ccn2ncnc2c1 [tucatinib]
Renal damage ([1]; conclusion of Example 1): does not cause renal damage | Change in mean serum creatinine [1, 5]: increase | Measures of renal function including aGFR as assessed by iohexol and urine albumin levels [1, 5]: not affected | Inhibition mechanism, CYP2C8 [2]: competitive inhibition | Ki ([2]; marker substrate amodiaquine): 0.17 µM | IC50 [3]: 0.34 µM | inhibition at 10 µM [4]: 14.7%
